Source: ChEMBL document CHEMBL3774389, “C-3 benzoic acid derivatives of C-3 deoxybetulinic acid and deoxybetulin as HIV-1 maturation inhibitors” (Bioorg Med Chem, 2016)

How the values were obtained:
[1] = system: Human immunodeficiency virus 1; experiment: Antiviral activity against wild type HIV1 NLRepRlucP373S infected in human MT2 cells after 4 to 5 days by luciferase report gene based multiple cycle drug susceptibility assay; format: functional, organism-based; conditions: Human immunodeficiency virus 1, NLRepRlucP373S
[2] = system: Human immunodeficiency virus 1; experiment: Antiviral activity against HIV1 containing gag V370A mutant infected in human MT2 cells after 4 to 5 days by luciferase report gene based multiple cycle drug susceptibility assay; format: functional, organism-based; conditions: Human immunodeficiency virus 1, MT2
[3] = Cytotoxicity against human MT2 cells assessed as cell viability by redox dye assay; format: cell-based
[4] = system: Human immunodeficiency virus 1; experiment: Antiviral activity against wild type HIV1 NLRepRlucP373S infected in human MT2 cells after 4 to 5 days in presence of 15 mg/ml HSA by luciferase report gene based multiple cycle drug susceptibility assay; format: functional, organism-based; conditions: Human immunodeficiency virus 1, NLRepRlucP373S
[5] = system: Human immunodeficiency virus 1; experiment: Ratio of EC50 for HIV1 NLRepRlucP373S infected in human MT2 cells in presence of HSA to EC50 for HIV1 NLRepRlucP373S infected in human MT2 cells in absence of HSA; format: functional

| Structure (SMILES) | EC50 [1] [µM] | EC50 [2] [µM] | CC50 [3] [µM] | EC50 [4] [µM] | Ratio EC50 [5] |
| --- | --- | --- | --- | --- | --- |
| C=C(C)[C@@H]1CC[C@]2(C(=O)O)CC[C@]3(C)[C@H](CC[C@@H]4[C@@]5(C)CC=C(c6ccc(C(=O)O)s6)C(C)(C)[C@@H]5CC[C@]43C)[C@@H]12 | 0.059 | > 2 | 0.79 |  |  |
| C=C(C)[C@@H]1CC[C@]2(CO)CC[C@]3(C)[C@H](CC[C@@H]4[C@@]5(C)CC=C(c6csc(C(=O)O)c6)C(C)(C)[C@@H]5CC[C@]43C)[C@@H]12 | 0.38 | > 2 | 14.1 |  |  |
| C=C(C)[C@@H]1CC[C@]2(CO)CC[C@]3(C)[C@H](CC[C@@H]4[C@@]5(C)CC=C(c6cnc(C(=O)O)nc6)C(C)(C)[C@@H]5CC[C@]43C)[C@@H]12 | 1.08 | > 4 | 22.3 | 1.08 | 1 |
| C=C(C)[C@@H]1CC[C@]2(CO)CC[C@]3(C)[C@H](CC[C@@H]4[C@@]5(C)CC=C(c6ccc(C(=O)O)c(C(=O)O)c6)C(C)(C)[C@@H]5CC[C@]43C)[C@@H]12 | 0.038 | 0.212 | > 20 |  |  |
| C=C(C)[C@@H]1CC[C@]2(C(=O)O)CC[C@]3(C)[C@H](CC[C@@H]4[C@@]5(C)CC=C(c6cccc(C(=O)O)c6)C(C)(C)[C@@H]5CC[C@]43C)[C@@H]12 | > 8 |  | 13.8 |  |  |
| C=C(C)[C@@H]1CC[C@]2(C(=O)O)CC[C@]3(C)[C@H](CC[C@@H]4[C@@]5(C)CC=C(c6ccn(CC(=O)O)n6)C(C)(C)[C@@H]5CC[C@]43C)[C@@H]12 | 0.167 | > 3 | > 30 |  |  |
| C=C(C)[C@@H]1CC[C@]2(CO)CC[C@]3(C)[C@H](CC[C@@H]4[C@@]5(C)CC=C(c6ccc(-c7nn[nH]n7)cc6)C(C)(C)[C@@H]5CC[C@]43C)[C@@H]12 | 3.4 | > 4 | 34.3 |  |  |
| C=C(C)[C@@H]1CC[C@]2(CO)CC[C@]3(C)[C@H](CC[C@@H]4[C@@]5(C)CC=C(c6ccc(C(=O)O)cn6)C(C)(C)[C@@H]5CC[C@]43C)[C@@H]12 | 0.503 | > 2 | 4.3 |  |  |
| C=C(C)[C@@H]1CC[C@]2(C(=O)O)CC[C@]3(C)[C@H](CC[C@@H]4[C@@]5(C)CC=C(c6ccc(C(=O)NC)cc6)C(C)(C)[C@@H]5CC[C@]43C)[C@@H]12 | 1.6 |  | 22.6 |  |  |
| C=C(C)[C@@H]1CC[C@]2(CO)CC[C@]3(C)[C@H](CC[C@@H]4[C@@]5(C)CC=C(c6ccc(C(=O)O)c(O)c6)C(C)(C)[C@@H]5CC[C@]43C)[C@@H]12 | 0.081 | 2.78 | 9.76 | 0.065 | 0.8 |
| C=C(C)[C@@H]1CC[C@]2(C(=O)O)CC[C@]3(C)[C@H](CC[C@@H]4[C@@]5(C)CC=C(c6ccc(NC(=O)CCC(=O)O)cc6)C(C)(C)[C@@H]5CC[C@]43C)[C@@H]12 | 1.47 | 1.57 | 7.73 |  |  |
| C=C(C)[C@@H]1CC[C@]2(C(=O)O)CC[C@]3(C)[C@H](CC[C@@H]4[C@@]5(C)CC=C(c6ccc(O)cc6)C(C)(C)[C@@H]5CC[C@]43C)[C@@H]12 | 0.308 |  | 13.4 | > 8 |  |
| C=C(C)[C@@H]1CC[C@]2(CO)CC[C@]3(C)[C@H](CC[C@@H]4[C@@]5(C)CC=C(c6ccc(C(=O)O)cc6Cl)C(C)(C)[C@@H]5CC[C@]43C)[C@@H]12 | 0.114 | > 4 | 17.3 | 0.117 | 1 |
| C=C(C)[C@@H]1CC[C@]2(C(=O)O)CC[C@]3(C)[C@H](CC[C@@H]4[C@@]5(C)CC=C(c6cccc(CCC(=O)O)c6)C(C)(C)[C@@H]5CC[C@]43C)[C@@H]12 | 0.571 |  | 1.83 |  |  |
| C=C(C)[C@@H]1CC[C@]2(CO)CC[C@]3(C)[C@H](CC[C@@H]4[C@@]5(C)CC=C(c6ccc(C(=O)O)cc6F)C(C)(C)[C@@H]5CC[C@]43C)[C@@H]12 | 0.055 | 1.4 | 16.5 | 0.05 | 1 |
| C=C(C)[C@@H]1CC[C@]2(CO)CC[C@]3(C)[C@H](CC[C@@H]4[C@@]5(C)CC=C(c6ccc(C(=O)O)c(F)c6)C(C)(C)[C@@H]5CC[C@]43C)[C@@H]12 | 0.046 | 0.309 | 18.8 | 0.185 | 4 |
| C=C(C)[C@@H]1CC[C@]2(C(=O)O)CC[C@]3(C)[C@H](CC[C@@H]4[C@@]5(C)CC=C(c6ccc(C(=O)NS(=O)(=O)C(C)C)cc6)C(C)(C)[C@@H]5CC[C@]43C)[C@@H]12 | 0.124 | 0.937 | 8.68 | 0.275 | 2.2 |

| Structure (SMILES) | EC50 [1] [µM] | EC50 [2] [µM] | CC50 [3] [µM] | EC50 [4] [µM] | Ratio EC50 [5] |
| --- | --- | --- | --- | --- | --- |
| C=C(C)[C@@H]1CC[C@]2(C(=O)O)CC[C@]3(C)[C@H](CC[C@@H]4[C@@]5(C)CC=C(c6cccc(-c7nn[nH]n7)c6)C(C)(C)[C@@H]5CC[C@]43C)[C@@H]12 | > 8 |  | 10.5 |  |  |
| C=C(C)[C@@H]1CC[C@]2(C(=O)O)CC[C@]3(C)[C@H](CC[C@@H]4[C@@]5(C)CC=C(c6cccc(NS(C)(=O)=O)c6)C(C)(C)[C@@H]5CC[C@]43C)[C@@H]12 | 2.13 |  | 12.7 |  |  |
| C=C(C)[C@@H]1CC[C@]2(C(=O)O)CC[C@]3(C)[C@H](CC[C@@H]4[C@@]5(C)CC=C(c6ccc(C(=O)O)c(Cl)c6)C(C)(C)[C@@H]5CC[C@]43C)[C@@H]12 | 0.021 | 0.589 | 3.08 | 0.331 | 15 |
| C=C(C)[C@@H]1CC[C@]2(C(=O)O)CC[C@]3(C)[C@H](CC[C@@H]4[C@@]5(C)CC=C(c6ccc(S(C)(=O)=O)cc6)C(C)(C)[C@@H]5CC[C@]43C)[C@@H]12 | 2.52 |  | 9.72 |  |  |
| C=C(C)[C@@H]1CC[C@]2(C(=O)O)CC[C@]3(C)[C@H](CC[C@@H]4[C@@]5(C)CC=C(c6ccc(C7(C(=O)O)CC7)cc6)C(C)(C)[C@@H]5CC[C@]43C)[C@@H]12 | 0.215 | 0.633 | > 8 |  |  |
| C=C(C)[C@@H]1CC[C@]2(C(=O)O)CC[C@]3(C)[C@H](CC[C@@H]4[C@@]5(C)CC=C(c6ccc(CCC(=O)O)cc6)C(C)(C)[C@@H]5CC[C@]43C)[C@@H]12 | 0.682 |  | 6.55 |  |  |
| C=C(C)[C@@H]1CC[C@]2(CO)CC[C@]3(C)[C@H](CC[C@@H]4[C@@]5(C)CC=C(c6ccc(C(=O)O)cc6C)C(C)(C)[C@@H]5CC[C@]43C)[C@@H]12 | 0.613 | 3.88 | 7.02 | 0.66 | 1 |
| C=C(C)[C@@H]1CC[C@]2(C(=O)O)CC[C@]3(C)[C@H](CC[C@@H]4[C@@]5(C)CC=C(c6ccccc6CCC(=O)O)C(C)(C)[C@@H]5CC[C@]43C)[C@@H]12 | 3.2 |  | 5.03 |  |  |
| C=C(C)[C@@H]1CC[C@]2(CO)CC[C@]3(C)[C@H](CC[C@@H]4[C@@]5(C)CC=C(c6cc(C(=O)O)no6)C(C)(C)[C@@H]5CC[C@]43C)[C@@H]12 | 0.039 | > 2 | 12.1 | 0.295 | 7.5 |
| C=C(C)[C@@H]1CC[C@]2(C(=O)O)CC[C@]3(C)[C@H](CC[C@@H]4[C@@]5(C)CC=C(c6cccc(S(=O)(=O)NC)c6)C(C)(C)[C@@H]5CC[C@]43C)[C@@H]12 | 1.23 |  | 13 |  |  |
| C=C(C)[C@@H]1CC[C@]2(CO)CC[C@]3(C)[C@H](CC[C@@H]4[C@@]5(C)CC=C(c6ccc(NS(C)(=O)=O)cc6)C(C)(C)[C@@H]5CC[C@]43C)[C@@H]12 | > 1.6 | > 1.6 | 8.82 | > 1.6 |  |
| C=C(C)[C@@H]1CC[C@]2(C(=O)O)CC[C@]3(C)[C@H](CC[C@@H]4[C@@]5(C)CC=C(c6ccc(/C=C/C(=O)O)cc6)C(C)(C)[C@@H]5CC[C@]43C)[C@@H]12 | 0.734 |  | > 8 |  |  |
| C=C(C)[C@@H]1CC[C@]2(CO)CC[C@]3(C)[C@H](CC[C@@H]4[C@@]5(C)CC=C(c6cc(C(=O)O)[nH]n6)C(C)(C)[C@@H]5CC[C@]43C)[C@@H]12 | 0.061 | 0.348 | 0.57 |  |  |
| C=C(C)[C@@H]1CC[C@]2(C(=O)O)CC[C@]3(C)[C@H](CC[C@@H]4[C@@]5(C)CC=C(c6ccc(-c7cnc8ccccc8c7C(=O)O)cc6)C(C)(C)[C@@H]5CC[C@]43C)[C@@H]12 | 3.6 |  | 15.9 |  |  |
| C=C(C)[C@@H]1CC[C@]2(C(=O)O)CC[C@]3(C)[C@H](CC[C@@H]4[C@@]5(C)CC=C(c6ccc(C#N)cc6)C(C)(C)[C@@H]5CC[C@]43C)[C@@H]12 | > 1.6 |  | 4.45 |  |  |
| C=C(C)[C@@H]1CC[C@]2(C(=O)O)CC[C@]3(C)[C@H](CC[C@@H]4[C@@]5(C)CC[C@H](OC(=O)CC(C)(C)CC(=O)O)C(C)(C)[C@@H]5CC[C@]43C)[C@@H]12 | 0.004 |  | 4.25 | 0.909 | 227 |
| C=C(C)[C@@H]1CC[C@]2(CO)CC[C@]3(C)[C@H](CC[C@@H]4[C@@]5(C)CC=C(c6ccc([N+](=O)[O-])cc6)C(C)(C)[C@@H]5CC[C@]43C)[C@@H]12 | > 4 | > 4 | 20 | > 4 |  |
